Measurements taken from ChEMBL document CHEMBL3822442, “Synthesis and Pharmacological Characterization of Novel Glucagon-like Peptide-2 (GLP-2) Analogues with Low Systemic Clearance” (J Med Chem, 2016).
The source made the active and inactive calls. The rule behind the calls is not given here.

Tests used:
Type in all cases: cell-based
[1] = target: T1, Glucagon-like peptide 2 receptor (Homo sapiens, UniProt O95838); assay: Agonist activity at human GLP2R expressed in HEK293 cells after 5 hrs by luciferase reporter gene assay
T1 sequence (O95838 whole entry): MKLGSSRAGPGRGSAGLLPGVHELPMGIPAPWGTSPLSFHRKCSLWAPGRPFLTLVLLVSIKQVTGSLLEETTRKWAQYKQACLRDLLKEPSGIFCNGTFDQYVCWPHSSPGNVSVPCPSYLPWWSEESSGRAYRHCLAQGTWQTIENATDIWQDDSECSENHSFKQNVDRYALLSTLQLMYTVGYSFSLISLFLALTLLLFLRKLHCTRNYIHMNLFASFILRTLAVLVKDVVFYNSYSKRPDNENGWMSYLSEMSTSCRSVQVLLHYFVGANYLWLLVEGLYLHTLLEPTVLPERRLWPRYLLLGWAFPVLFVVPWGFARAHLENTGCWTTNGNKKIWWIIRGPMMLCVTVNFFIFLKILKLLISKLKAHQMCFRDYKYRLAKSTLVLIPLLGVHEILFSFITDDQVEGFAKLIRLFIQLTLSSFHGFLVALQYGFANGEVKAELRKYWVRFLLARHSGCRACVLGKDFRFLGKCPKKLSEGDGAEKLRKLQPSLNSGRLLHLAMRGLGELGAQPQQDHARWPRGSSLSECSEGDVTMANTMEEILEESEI

[2] = target: Glucagon-like peptide 1 receptor (Homo sapiens, UniProt P43220); assay: Agonist activity at human GLP1R expressed in HEK293 cells after 5 hrs by luciferase reporter gene assay
Glucagon-like peptide 1 receptor, sequence (P43220 whole entry): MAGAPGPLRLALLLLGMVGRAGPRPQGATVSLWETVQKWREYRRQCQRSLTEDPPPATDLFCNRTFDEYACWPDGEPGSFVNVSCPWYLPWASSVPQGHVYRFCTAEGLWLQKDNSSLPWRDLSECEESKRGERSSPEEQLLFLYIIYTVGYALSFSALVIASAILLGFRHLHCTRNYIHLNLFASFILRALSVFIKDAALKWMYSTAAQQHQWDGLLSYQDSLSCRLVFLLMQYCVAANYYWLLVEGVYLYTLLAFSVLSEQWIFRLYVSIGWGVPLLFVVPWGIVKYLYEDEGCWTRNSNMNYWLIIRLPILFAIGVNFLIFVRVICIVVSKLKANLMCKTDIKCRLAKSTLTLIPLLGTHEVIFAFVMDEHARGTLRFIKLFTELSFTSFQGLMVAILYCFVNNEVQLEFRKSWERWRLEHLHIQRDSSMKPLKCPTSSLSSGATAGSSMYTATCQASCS

[3] = target: T2, Glucagon-like peptide 2 receptor (Homo sapiens) (UniProt O95838); assay: Potency index, ratio of compound EC50 to compound 2 EC50 for human GLP2R expressed in HEK293 cells
T2 sequence (whole entry): T1 sequence (O95838 whole entry)

HEK293 = assay: Selectivity ratio of EC50 for human GLP1R expressed in HEK293 cells to EC50 for human GLP2R expressed in HEK293
[4] = target: Glucagon receptor (Homo sapiens) (UniProt P47871); assay: Agonist activity at human GCGR expressed in HEK293 cells after 5 hrs by luciferase reporter gene assay
Glucagon receptor (Homo sapiens), sequence (P47871 whole entry): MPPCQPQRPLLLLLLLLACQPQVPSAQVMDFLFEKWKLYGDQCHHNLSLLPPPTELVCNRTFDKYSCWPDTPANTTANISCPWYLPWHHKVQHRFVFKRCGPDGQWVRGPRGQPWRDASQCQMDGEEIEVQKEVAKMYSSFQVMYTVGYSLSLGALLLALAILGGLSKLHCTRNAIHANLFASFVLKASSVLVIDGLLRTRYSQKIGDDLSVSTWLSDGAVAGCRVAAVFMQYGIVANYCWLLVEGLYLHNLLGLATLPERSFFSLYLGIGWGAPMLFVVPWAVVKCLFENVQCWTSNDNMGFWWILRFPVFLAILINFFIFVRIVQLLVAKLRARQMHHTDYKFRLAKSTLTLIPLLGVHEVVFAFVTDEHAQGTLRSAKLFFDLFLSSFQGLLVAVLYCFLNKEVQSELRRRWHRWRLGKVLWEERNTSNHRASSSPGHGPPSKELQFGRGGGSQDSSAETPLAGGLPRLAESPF

| SMILES | EC50 [1] [nM] | EC50 [2] [nM] | Ratio EC50 [3] | Activity [4] | Ratio EC50 (HEK293) |
| --- | --- | --- | --- | --- | --- |
| CCCCC(NC(=O)[C@H](CCC(=O)O)NC(=O)[C@H](CC(=O)O)NC(=O)[C@H](CO)NC(=O)[C@H](Cc1ccccc1)NC(=O)[C@H](CO)NC(=O)CNC(=O)[C@H](CC(=O)O)NC(=O)CNC(=O)[C@@H](N)Cc1cnc[nH]1)C(=O)N[C@@H](CC(N)=O)C(=O)N[C@H](C(=O)N[C@H](C(=O)N[C@H](CC(C)C)C(=O)N[C@@H](CC(=O)O)C(=O)N[C@@H](CC(N)=O)C(=O)N[C@@H](CC(C)C)C(=O)N[C@@H](C)C(=O)N[C@@H](C)C(=O)N[C@@H](CCCNC(=N)N)C(=O)N[C@@H](CC(=O)O)C(=O)N[C@@H](Cc1ccccc1)C(=O)N[C@H](C(=O)N[C@@H](CC(N)=O)C(=O)N[C@@H](Cc1c[nH]c2ccccc12)C(=O)N[C@@H](CC(C)C)C(=O)N[C@H](C(=O)N[C@@H](CCC(N)=O)C(=O)N[C@H](C(=O)N[C@@H](CCCCN)C(N)=O)[C@@H](C)O)[C@@H](C)CC)[C@@H](C)CC)[C@@H](C)CC)[C@@H](C)O (some centres undefined) | 8.9 | > 1000 | 40 | inactive | > 110 |
| CCCCC(NC(=O)[C@H](CCC(=O)O)NC(=O)[C@H](CC(=O)O)NC(=O)[C@H](CO)NC(=O)[C@H](Cc1ccccc1)NC(=O)[C@H](CO)NC(=O)CNC(=O)[C@H](CC(=O)O)NC(=O)CNC(=O)[C@@H](N)Cc1cnc[nH]1)C(=O)N[C@@H](CC(N)=O)C(=O)N[C@H](C(=O)N[C@H](C(=O)N[C@@H](CC(C)C)C(=O)N[C@@H](CC(=O)O)C(=O)N[C@@H](CC(N)=O)C(=O)N[C@@H](CC(C)C)C(=O)N[C@@H](C)C(=O)N[C@H](C)C(=O)N[C@@H](CCCNC(=N)N)C(=O)N[C@@H](CC(=O)O)C(=O)N[C@@H](Cc1ccccc1)C(=O)N[C@H](C(=O)N[C@@H](CC(N)=O)C(=O)N[C@@H](Cc1c[nH]c2ccccc12)C(=O)N[C@@H](CC(C)C)C(=O)N[C@H](C(=O)N[C@@H](CCC(N)=O)C(=O)N[C@H](C(=O)N[C@@H](CCCCN)C(N)=O)[C@@H](C)O)[C@@H](C)CC)[C@@H](C)CC)[C@@H](C)CC)[C@@H](C)O (some centres undefined) | 14 | > 1000 | 64 | inactive | > 71 |
| CCCCC(NC(=O)[C@H](CCC(=O)O)NC(=O)[C@H](CC(=O)O)NC(=O)[C@H](CO)NC(=O)[C@H](Cc1ccccc1)NC(=O)[C@H](CO)NC(=O)CNC(=O)[C@H](CC(=O)O)NC(=O)CNC(=O)[C@@H](N)Cc1cnc[nH]1)C(=O)N[C@@H](CC(N)=O)C(=O)N[C@H](C(=O)N[C@H](C(=O)N[C@@H](CC(C)C)C(=O)N[C@@H](CC(=O)O)C(=O)N[C@@H](CC(N)=O)C(=O)N[C@@H](CC(C)C)C(=O)N[C@@H](C)C(=O)N[C@@H](C)C(=O)N[C@@H](CCCNC(=N)N)C(=O)N[C@@H](CC(=O)O)C(=O)N[C@@H](Cc1ccccc1)C(=O)N[C@H](C(=O)N[C@@H](CC(N)=O)C(=O)N[C@H](Cc1c[nH]c2ccccc12)C(=O)N[C@@H](CC(C)C)C(=O)N[C@H](C(=O)N[C@@H](CCC(N)=O)C(=O)N[C@H](C(=O)N[C@@H](CCCCN)C(N)=O)[C@@H](C)O)[C@@H](C)CC)[C@@H](C)CC)[C@@H](C)CC)[C@@H](C)O (some centres undefined) | > 30 | > 1000 | > 130 | inactive |  |
| CCCCC(NC(=O)[C@@H](CCC(=O)O)NC(=O)[C@H](CC(=O)O)NC(=O)[C@H](CO)NC(=O)[C@H](Cc1ccccc1)NC(=O)[C@H](CO)NC(=O)CNC(=O)[C@H](CC(=O)O)NC(=O)CNC(=O)[C@@H](N)Cc1cnc[nH]1)C(=O)N[C@@H](CC(N)=O)C(=O)N[C@H](C(=O)N[C@H](C(=O)N[C@@H](CC(C)C)C(=O)N[C@@H](CC(=O)O)C(=O)N[C@@H](CC(N)=O)C(=O)N[C@@H](CC(C)C)C(=O)N[C@@H](C)C(=O)N[C@@H](C)C(=O)N[C@@H](CCCNC(=N)N)C(=O)N[C@@H](CC(=O)O)C(=O)N[C@@H](Cc1ccccc1)C(=O)N[C@H](C(=O)N[C@@H](CC(N)=O)C(=O)N[C@@H](Cc1c[nH]c2ccccc12)C(=O)N[C@@H](CC(C)C)C(=O)N[C@H](C(=O)N[C@@H](CCC(N)=O)C(=O)N[C@H](C(=O)N[C@@H](CCCCN)C(N)=O)[C@@H](C)O)[C@@H](C)CC)[C@@H](C)CC)[C@@H](C)CC)[C@@H](C)O (some centres undefined) | 7.1 | > 1000 | 32 | inactive | > 140 |

More lines, in order of falling EC50 [1], values ahead:

| EC50 [1] [nM] | EC50 [2] [nM] | Ratio EC50 [3] | Activity [4] | SMILES | Ratio EC50 (HEK293) |
| --- | --- | --- | --- | --- | --- |
| 8.1 | > 1000 | 37 | inactive | CCCCC(NC(=O)[C@H](CCC(=O)O)NC(=O)[C@H](CC(=O)O)NC(=O)[C@H](CO)NC(=O)[C@H](Cc1ccccc1)NC(=O)[C@@H](CO)NC(=O)CNC(=O)[C@H](CC(=O)O)NC(=O)CNC(=O)[C@@H](N)Cc1cnc[nH]1)C(=O)N[C@@H](CC(N)=O)C(=O)N[C@H](C(=O)N[C@H](C(=O)N[C@@H](CC(C)C)C(=O)N[C@@H](CC(=O)O)C(=O)N[C@@H](CC(N)=O)C(=O)N[C@@H](CC(C)C)C(=O)N[C@@H](C)C(=O)N[C@@H](C)C(=O)N[C@@H](CCCNC(=N)N)C(=O)N[C@@H](CC(=O)O)C(=O)N[C@@H](Cc1ccccc1)C(=O)N[C@H](C(=O)N[C@@H](CC(N)=O)C(=O)N[C@@H](Cc1c[nH]c2ccccc12)C(=O)N[C@@H](CC(C)C)C(=O)N[C@H](C(=O)N[C@@H](CCC(N)=O)C(=O)N[C@H](C(=O)N[C@@H](CCCCN)C(N)=O)[C@@H](C)O)[C@@H](C)CC)[C@@H](C)CC)[C@@H](C)CC)[C@@H](C)O (some centres undefined) | > 120 |
| 4.5 | > 1000 | 20 | inactive | CCCCC(NC(=O)[C@H](CCC(=O)O)NC(=O)[C@H](CC(=O)O)NC(=O)[C@H](CO)NC(=O)[C@H](Cc1ccccc1)NC(=O)[C@H](CO)NC(=O)CNC(=O)[C@H](CC(=O)O)NC(=O)CNC(=O)[C@@H](N)Cc1cnc[nH]1)C(=O)N[C@@H](CC(N)=O)C(=O)N[C@H](C(=O)N[C@H](C(=O)N[C@@H](CC(C)C)C(=O)N[C@@H](CC(=O)O)C(=O)N[C@@H](CC(N)=O)C(=O)N[C@@H](CC(C)C)C(=O)N[C@H](C)C(=O)N[C@@H](C)C(=O)N[C@@H](CCCNC(=N)N)C(=O)N[C@@H](CC(=O)O)C(=O)N[C@@H](Cc1ccccc1)C(=O)N[C@H](C(=O)N[C@@H](CC(N)=O)C(=O)N[C@@H](Cc1c[nH]c2ccccc12)C(=O)N[C@@H](CC(C)C)C(=O)N[C@H](C(=O)N[C@@H](CCC(N)=O)C(=O)N[C@H](C(=O)N[C@@H](CCCCN)C(N)=O)[C@@H](C)O)[C@@H](C)CC)[C@@H](C)CC)[C@@H](C)CC)[C@@H](C)O (some centres undefined) | > 220 |
| 0.38 | > 1000 | 1.7 | inactive | CCCCC(NC(=O)[C@H](CCC(=O)O)NC(=O)[C@H](CC(=O)O)NC(=O)[C@H](CO)NC(=O)[C@H](Cc1ccccc1)NC(=O)[C@H](CO)NC(=O)CNC(=O)[C@H](CC(=O)O)NC(=O)CNC(=O)[C@@H](N)Cc1cnc[nH]1)C(=O)N[C@@H](CC(N)=O)C(=O)N[C@H](C(=O)N[C@H](C(=O)N[C@@H](CC(C)C)C(=O)N[C@@H](CC(=O)O)C(=O)N[C@@H](CC(N)=O)C(=O)N[C@@H](CC(C)C)C(=O)N[C@@H](C)C(=O)N[C@@H](C)C(=O)N[C@@H](CCCNC(=N)N)C(=O)N[C@@H](CC(=O)O)C(=O)N[C@@H](Cc1ccccc1)C(=O)N[C@H](C(=O)N[C@@H](CC(N)=O)C(=O)N[C@@H](Cc1c[nH]c2ccccc12)C(=O)N[C@@H](CC(C)C)C(=O)N[C@H](C(=O)N[C@@H](CCC(N)=O)C(=O)N[C@H](C(=O)N[C@H](CCCCN)C(N)=O)[C@@H](C)O)[C@@H](C)CC)[C@@H](C)CC)[C@@H](C)CC)[C@@H](C)O (some centres undefined) | > 2600 |
| 0.35 | > 1000 | 1.6 | inactive | CCCCC(NC(=O)[C@H](CCC(=O)O)NC(=O)[C@H](CC(=O)O)NC(=O)[C@H](CO)NC(=O)[C@H](Cc1ccccc1)NC(=O)[C@H](CO)NC(=O)CNC(=O)[C@H](CC(=O)O)NC(=O)CNC(=O)[C@@H](N)Cc1cnc[nH]1)C(=O)N[C@@H](CC(N)=O)C(=O)N[C@H](C(=O)N[C@@H](C(=O)N[C@@H](CC(C)C)C(=O)N[C@@H](CC(=O)O)C(=O)N[C@@H](CC(N)=O)C(=O)N[C@@H](CC(C)C)C(=O)N[C@@H](C)C(=O)N[C@@H](C)C(=O)N[C@@H](CCCNC(=N)N)C(=O)N[C@@H](CC(=O)O)C(=O)N[C@@H](Cc1ccccc1)C(=O)N[C@H](C(=O)N[C@@H](CC(N)=O)C(=O)N[C@@H](Cc1c[nH]c2ccccc12)C(=O)N[C@@H](CC(C)C)C(=O)N[C@H](C(=O)N[C@@H](CCC(N)=O)C(=O)N[C@H](C(=O)N[C@@H](CCCCN)C(N)=O)[C@@H](C)O)[C@@H](C)CC)[C@@H](C)CC)[C@H](C)CC)[C@@H](C)O (some centres undefined) | > 2800 |
